“And” between values parts separate entries of the source, which are not always exact repeats. Equal values may be shown once. “Also recorded” adds a separate entry of the source.
Tested on: glucocorticoid-refractory/dependent moderate and severe cGVHD subjects
Test: Clinical study of tablets of the compound of formula I in glucocorticoid-refractory/dependent moderate and severe cGVHD subjects
Type: in vivo, human
Parameters: key to C1 organ score and efficacy: efficacy / C3 organ score and efficacy: efficacy / C6 organ score and efficacy: efficacy / C9 organ score and efficacy: efficacy / C12 organ score and efficacy: efficacy: Complete response (CR): all reversible clinical symptoms of cGVHD were completely alleviated; Partial response (PR): there was improvement in at least one organ or site, but no improvement in all other organs or sites; Stable disease (SD): cGVHD clinical performance was not worsened compared to baseline; Disease progression (PD): any one organ or site was worsened
Procedure: As used herein, 2014 NIH cGVHD meeting consensus criteria was used for clinical diagnosis, disease grading, and evaluation of disease status or effectiveness.
As used herein, the severity of adverse events was determined using the NCI-CTC AE 5.0 criteria.
The subjects of the study were glucocorticoid-refractory/dependent moderate and severe cGVHD subjects. The safety and the tolerability of the tablets of the compound of formula I in the glucocorticoid-refractory/dependent moderate and severe cGVHD subjects were evaluated, and the efficacy and the safety of the tablets of the compound of formula I in the glucocorticoid-refractory/dependent moderate and severe cGVHD subjects were further evaluated.
Method of administration: orally administered twice daily at fasting, with 28 consecutive days of administration as one treatment cycle.
Drug: the tablets of the compound of formula I with 5 mg or 20 mg of the active ingredient, the compound of formula I being its stereoisomer, a compound of formula II
During the study, the investigator would evaluate the cGVHD activity through NIH consensus on cGVHD to define the response effect and make a record accordingly.
Complete response (CR): all reversible clinical symptoms of cGVHD were completely alleviated. Irreversible clinical manifestations would be defined by NIH consensus criteria.
Partial response (PR): there was improvement in at least one organ or site, but no improvement in all other organs or sites.
Stable disease (SD): cGVHD clinical performance was not worsened compared to baseline.
Disease progression (PD): any one organ or site was worsened. In addition, the emergence of new clinical manifestations of cGVHD was also counted as progression.
Objective response rate (ORR): refers to the percentage of subjects in complete response (CR) or partial response (PR) as determined by the investigator according to NIH cGVHD response assessment.
Best objective response rate (ORR): refers to the percentage of subjects whose best response was complete response (CR) or partial response (PR) as determined by the investigator according to NIH cGVHD response assessment.

[1] = 10 mg bid oral, cycle C1, individual subjects
[2] = 10 mg bid oral, cycle C1, individual subjects 1-4
[3] = 10 mg bid oral, cycle C3, individual subjects
[4] = 10 mg bid oral, cycle C3, individual subjects 1-4
[5] = 10 mg bid oral, cycle C6, individual subjects
[6] = 10 mg bid oral, cycle C6, individual subjects 1-4
[7] = 10 mg bid oral, cycle C9, individual subjects
[8] = 10 mg bid oral, cycle C9, individual subjects 1-4
[9] = 10 mg bid oral, cycle C12, individual subjects
[10] = 10 mg bid oral, cycle C12, individual subjects 1-2
[11] = 15 mg bid oral, cycle C1, individual subjects
[12] = 15 mg bid oral, cycle C1, individual subjects 5-8
[13] = 15 mg bid oral, cycle C3, individual subjects
[14] = 15 mg bid oral, cycle C3, individual subjects 5-8
[15] = 15 mg bid oral, cycle C6, individual subjects
[16] = 15 mg bid oral, cycle C6, individual subjects 5-8
[17] = 15 mg bid oral, cycle C9, subject 5
[18] = of the patients evaluated in Table 2, 10 or 15 mg bid

With N#CC[C@H](C1CCCC1)n1cc(-c2ncnc3[nH]ccc23)c(N)n1 [compound of formula I] the “C1 organ score: esophagus” value [1] was 1 point for points, the “C1 organ score: eye” value [1] was “skin, 1 point points (2×) and 1 point for eye, points (2×)” and the “C1 organ score: joint” value [1] was 1 point for points and 1 points. For the same compound, the “C1 organ score: lung” value [1] was 3 points for (2×) and 0 points for, the “C1 organ score: lung, percentage in parentheses” value [1] was “lung (34.4%), and lung (81.8%), and 25%” and the “C1 organ score: oral cavity” value [1] was 1 point for points. The “C1 organ score: skin” value [1] was 1 point for points and 3 points for, the “C1 organ score: upper digestive tract” value [1] was 1 point for points and the “C1 organ score and efficacy: comprehensive score” value [2] was “score 6;; also recorded: score 1;; also recorded: score 2;”. The “C1 organ score and efficacy: efficacy” value [2] was “efficacy: PR”, the “C3 organ score: esophagus” value [3] was 1 point for points and the “C3 organ score: eye” value [3] was 1 point for eye, points. For the same compound, the “C3 organ score: joint” value [3] was 1 point for points and 1 points, the “C3 organ score: joint fascia” value [3] was 2 points for and the “C3 organ score: lung” value [3] was 0 points for. For the same compound, the “C3 organ score: lung, percentage in parentheses” value [3] was “lung (31%), and lung (81.0%), and 28.1%”, the “C3 organ score: skin” value [3] was 1 point for points and the “C3 organ score: upper digestive tract” value [3] was 0 points for. The “C3 organ score and efficacy: comprehensive score” value [4] was “score 5;; also recorded: score 1;”, the “C3 organ score and efficacy: efficacy” value [4] was “efficacy: PR” and the “C6 organ score: esophagus” value [5] was 1 point for points. For the same compound, the “C6 organ score: eye” value [5] was 1 point for eye, points, the “C6 organ score: joint” value [5] was 1 point for points and 1 points and the “C6 organ score: joint fascia” value [5] was 2 points for. For the same compound, the “C6 organ score: lung” value [5] was 3 points for (2×) and 0 points for, the “C6 organ score: lung, percentage in parentheses” value [5] was “lung (33%), and lung (80%), and 25.0%” and the “C6 organ score: skin” value [5] was 1 point for points and 2 points for. The “C6 organ score: upper digestive tract” value [5] was 0 points for, the “C6 organ score and efficacy: comprehensive score” value [6] was “score 5;; also recorded: score 1;” and the “C6 organ score and efficacy: efficacy” value [6] was “efficacy: PR”. The “C9 organ score: esophagus” value [7] was 1 point for points and 0 points for, the “C9 organ score: eye” value [7] was “skin, 0 points (2×) and 1 point for eye, points (2×)” and the “C9 organ score: joint” value [7] was 1 point for points and 1 points. The “C9 organ score: lung” value [7] was 3 points for (2×) and 0 points for, the “C9 organ score: lung, percentage in parentheses” value [7] was “lung (35.1%), and 26.6%” and the “C9 organ score: skin” value [7] was 0 points for. The “C9 organ score: upper digestive tract” value [7] was 0 points for, the “C9 organ score and efficacy: comprehensive score” value [8] was “score 5;; also recorded: score 0;; also recorded: score 1;” and the “C9 organ score and efficacy: efficacy” value [8] was “efficacy: PR; also recorded: efficacy: CR”. The “C12 organ score: esophagus” value [9] was 1 point for points, the “C12 organ score: eye” value [9] was “skin, 0 points” and the “C12 organ score: joint fascia” value [9] was 2 points for. For the same compound, the “C12 organ score: lung” value [9] was 3 points for, the “C12 organ score: lung, percentage in parentheses” value [9] was “lung (35.1%),” and the “C12 organ score: skin” value [9] was 0 points for. The “C12 organ score: upper digestive tract” value [9] was 0 points for, the “C12 organ score and efficacy: comprehensive score” value [10] was “score 5;; also recorded: score 0;” and the “C12 organ score and efficacy: efficacy” value [10] was “efficacy: PR; also recorded: efficacy: CR”. For the same compound, the “C1 organ score: esophagus” value [11] was 0 points for, the “C1 organ score: eye” value [11] was “skin, 1 point points; also recorded: skin, 2 points” and the “C1 organ score: joint fascia” value [11] was 1 points and 1 point for points. The “C1 organ score: lower digestive tract” value [11] was 1 point for points, the “C1 organ score: lung” value [11] was “tract, 3 points and 3 points for” and the “C1 organ score: lung, percentage in parentheses” value [11] was 20.5% and lung (28.7%), and lung (55%),. For the same compound, the “C1 organ score: skin” value [11] was 1 point for points and 3 points for, the “C1 organ score and efficacy: comprehensive score” value [12] was “score 8;; also recorded: score 6;; also recorded: score 3;; also recorded: score 7;” and the “C1 organ score and efficacy: efficacy” value [12] was “efficacy: PR; also recorded: efficacy: SD”. For the same compound, the “C3 organ score: esophagus” value [13] was 0 points for, the “C3 organ score: joint fascia” value [13] was 1 points and 1 point for points and 2 points for and the “C3 organ score: lower digestive tract” value [13] was 1 point for points. For the same compound, the “C3 organ score: lung” value [13] was “tract, 3 points”, the “C3 organ score: lung, percentage in parentheses” value [13] was 17% and lung (27.8%), and lung (55%), and the “C3 organ score: skin” value [13] was 1 point for points. The “C3 organ score and efficacy: comprehensive score” value [14] was “score 8;; also recorded: score 5;; also recorded: score 2;; also recorded: score 7;”, the “C3 organ score and efficacy: efficacy” value [14] was “efficacy: PR; also recorded: efficacy: SD” and the “C6 organ score: esophagus” value [15] was 0 points for and 1 point for points. For the same compound, the “C6 organ score: joint fascia” value [15] was 1 points and 0 points for and 2 points for, the “C6 organ score: lower digestive tract” value [15] was 1 point for points and the “C6 organ score: lung” value [15] was “tract, 3 points and 3 points for and 2 points for”. The “C6 organ score: lung, percentage in parentheses” value [15] was 15.9% and lung (28.4%), and lung (52.7%),, the “C6 organ score: skin” value [15] was 2 points for (2×) and 1 point for points (2×) and the “C6 organ score and efficacy: comprehensive score” value [16] was “score 8;; also recorded: score 4;; also recorded: score 2;; also recorded: score 6;”. For the same compound, the “C6 organ score and efficacy: efficacy” value [16] was “efficacy: PR”, the “C9 organ score and efficacy: comprehensive score” value [17] was “score 6;” and the “C9 organ score and efficacy: efficacy” value [17] was “efficacy: PR”. For the same compound, the “C9 organ score: eye” value [17] was “skin, 2 points”, the “C9 organ score: joint fascia” value [17] was 0 points and the “C9 organ score: lower digestive tract” value [17] was 0 points for. The “C9 organ score: lung” value [17] was “tract, 3 points”, the “C9 organ score: lung, percentage in parentheses” value [17] was 17.6% and the “C9 organ score: skin” value [17] was 0 points for. The “patients in complete response (CR)” value [18] was 1 patient, the “patients in partial response (PR)” value [18] was 7 patients and the “clinical benefit in the treatment of chronic graft-versus-host disease” value (patients evaluated in Table 2) was “clinical benefits”. The tolerability and safety (tablets, cGVHD subjects) was “good tolerability and safety”.

Source: patent US20240285635A1, “USE OF PYRROLOPYRIMIDINE COMPOUND AND PHARMACEUTICAL COMPOSITION THEREOF FOR TREATING CHRONIC GRAFT VERSUS HOST DISEASE” (CHIA TAI TIANQING PHARMACEUTICAL GROUP CO., LTD., priority 2021, published 2024)
